Experimental data published in publication PMC6337497 (International Journal of Molecular Sciences, 2018).
Entries after “also recorded” stand apart in the source; their conditions may differ.

Tests used:
PC3 cells [1] = assay: MTT cell viability assay, PC3; type: cell-based, Human; conditions: for GI50: 48 h treatment, MTT
Experimental: (§1) Human prostate cancer PC3 cells (CRL 1435, ATCC, Manassas, VA, USA) were grown in Ham’s F12 nutrient medium, human prostate cancer DU145 cells (HTB-81, ATCC, Manassas, VA, USA) in RPMI 1640 medium and human colorectal carcinoma HCT116 cells (CCL-247, ATCC, Manassas, VA, USA) in IMDM medium. All media (Biowest, Nuaillé, France) were supplemented with 10% Foetal Bovine Serum (Gibco-Thermo Fisher Scientific, Waltham, MA, USA), L-glutamine, penicillin, and streptomycin (Euroclone, Milan, Italy), and grown at 37 °C in a humidified 5% CO2 atmosphere.
(§2) DMSO was used as control.
(§3) The inhibition of cell proliferation was measured by colorimetric MTT assay and the concentration at which cellular growth is inhibited by 50% (GI50) was determined. Briefly, cells were seeded into 96-well plates at a density of 2000 cells/well. The following day, cells were treated with the indicated compounds and analyzed for cell viability after 48 h. 5 mg/mL thiazolyl blue tetrazolium bromide (Sigma-Aldrich, St. Louis, MO, USA) was added to each well at a final concentration of 0.5 mg/mL and the plates were incubated at 37 °C for 2 h. Medium containing unconverted MTT was removed and 100 µL MTT solvent (4 mM HCl, 0.1% NP-40 in isopropyl alcohol) was added to each well. The plate was gently rotated on an orbital shaker in the dark for 15 min, before the measurements of absorbance at 570 nm. The viability of untreated cells was arbitrarily set at 100%.

DU145 cells [2] = assay: MTT cell viability assay, DU145; type: cell-based, Human; conditions: for GI50: 48 h treatment, MTT
Experimental: as §1, §2, §3

PC3 cells [3] = assay: Cell cycle analysis (propidium iodide), PC3; type: cell-based, Human; conditions: for effect on cell cycle distribution (in words): PC3, 48 h at GI50 dose
Experimental: (§4) Cells were harvested after 48 h drug treatments and DNA distribution analysis of cells stained with propidium iodide solution (propidium iodide 25 µg/mL, Na-Citrate 3.4 mM, NaCl 9.65 mM, NP-40 0.03%) was performed by an Epics cytofluorimeter (Beckman Coulter Srl, Milan, Italy).

DU145 cells [4] = assay: Cell cycle analysis (propidium iodide), DU145; type: cell-based, Human; conditions: for effect on cell cycle distribution (in words): DU145, 48 h at GI50 dose
Experimental: as §4

DU145 cells [5] = assay: K3F21/docetaxel co-administration, MTT and CompuSyn, DU145; type: cell-based, Human; conditions: DU145, DTX 20nM co-administered with K3F21, 48 h
Experimental: as §3
The ability of K3F21 and docetaxel to act synergistically with regard to growth inhibition was determined using CompuSyn software (ComboSyn, Inc., freely available at http://www.combosyn.com). Combination index (CI) and drug reduction index (DRI) were calculated for each concentration of drugs mixture, as indicated in the text. CI <1, =1 or >1 indicates synergism, additive effect, or antagonism, respectively. DRI >1 or <1 indicates favorable or not favorable dose-reduction.

[6] = pH-metric titration, acid-base behavior (UV-vis, HypSpec); type: physicochemical; conditions: for pKa: aqueous solution diluted from a methanol mother solution, 25.0 °C, ionic strength 0.1 M NaNO3, read-out: pKa (keto-enol moiety)
Experimental: pH-metric titrations were performed in order to assess K3F acidity and predict the most abundant species in physiological condition. […] Overall protonation constants (βHL) were calculated from spectrophotometric data and optimized by means of HypSpec software (Supplementary Table S1). K3F23, K3F24 and K3F33 behaved as weak monoprotic acids, with a pKa value close to 8–8.50 associated to the keto-enol moiety. As for the other two ligands, namely K3F21 and K3F31, the acid-base equilibria were more complex in view of the polyprotic nature of the compounds, and three logβLH values were calculated. Species distribution curves (Supplementary Figure S2) provided reliable prediction of neutral and charged forms as function of pH, and consequently helped to envisage cell penetration and distribution in physiological conditions. […] As for K3F21 and K3F31, they behaved as less weak acids, in fact at pH 7 58% of K3F21 and 65% of K3F31 were found in the mono-dissociated negatively charged form (H2L^−), these percentages increased up to 74% and 86% respectively at pH 7.4. […] This outcome could be attributed to the stabilizing effect of the intramolecular hydrogen bond between the methoxyl and hydroxyl groups on the aromatic ring in the indissociated form of K3F21, which shifts the equilibrium in favor of the neutral species (H3L).
UV-vis spectrophotometric measurements were performed using Jasco V-570 spectrophotometer at 25.0 ± 0.1 °C in the 200–600 nm spectral range employing 1 cm quartz cells. Owing to the poor water solubility of the compounds, a methanol mother solution (5 × 10^−3 M) was diluted in water in order to give 50 µM solutions used for pH-metric titrations. The pH value was varied by adding small amounts of concentrated NaOH or HCl, 25 points in the pH range 3–10. A constant ionic strength of 0.1 M (NaNO3) was maintained in all the experiments. Each titration was performed at least three times. The overall protonation constants (logβLH) were evaluated from spectrophotometric data using the software HypSpec.

[7] = Kinetic stability in physiological conditions (UV-vis); type: physicochemical; conditions: after 24 h; PBS 0.01 M, NaCl 0.1M, pH = 7.4, 37 °C in darkness
Experimental: Figure 2 Stability and radical scavenging ability of K3F derivatives. (A) Residual % of K3F compounds vs. time (PBS 0.01 M, NaCl 0.1M, pH = 7.4, 37 °C in darkness). Residual % is calculated as At·100/A0, where At and A0 stand for absorbance at λmax at time t and time zero, respectively. (B) Percentage of inhibition of free DPPH radical ([DPPH^·] = 60 µM) in the presence of K3F compounds at increasing concentrations. Compounds concentration is expressed as molar ratio (compound/DPPH).
[…] 100 μM solutions of the ligands were prepared in 0.1 M Tris-HCl buffer (pH 7.4) with constant ionic strength (0.1 M NaNO3). Spectra were recorded every 30 min. All profiles were linearized by hyperbolic function (Equation (1)), which represents an empirical model that well describes drug decomposition or release. t/f% = at + b(1) where f% is the fraction of residual compound at time t (min) expressed as percentage referred to starting concentration at time zero.

PC3 cells [8] = assay: RT-qPCR gene transcription, PC3; type: cell-based, Human; conditions: PC3, 48 h at GI50 dose
Experimental: (§5) Data are presented as relative transcript levels, normalized with RPL21 housekeeping gene, with DMSO levels arbitrarily set at 1.
(§6) RNA was extracted from cells using RNeasy kit (Qiagen, Venlo, The Netherlands) and reversed transcribed with a Moloney murine leukemia virus reverse transcriptase (Promega, Madison, WI, USA). Quantitative real-time PCRs were performed using SsoAdvanced Universal SYBR Green Supermix (Bio-Rad, Hercules, CA, USA) on a Bio-Rad CFX Connect™ real-time PCR detection system. Primer sequences are available upon request. The housekeeping gene Rpl21 was used as a loading control. The relative fold change enrichments of real-time PCR samples were calculated with the formula 2^−(ΔΔCt), where −(ΔΔCt) = −[(Ct target − Ct Rpl21)treated − (Ct target − Ct Rpl21)DMSO].

DU145 cells [9] = assay: RT-qPCR gene transcription, DU145; type: cell-based, Human; conditions: DU145, 48 h at GI50 dose
Experimental: as §5, §6

PC3 cells [10] = assay: Western blot of total cellular lysates, PC3; type: cell-based, Human; conditions: PC3, 48 h at GI50 dose
Experimental: (§8) Actin was used as loading control. Whole-cell protein extracts were prepared by resuspending cells into 1X SDS sample buffer (25 mM Tris-HCl pH 6.8, 1.5 mM EDTA, 20% glycerol, 2% SDS, 5% β-mercaptoethanol, 0.0025% Bromophenol blue). Equivalent amounts of cellular extracts were resolved by SDS-PAGE, electrotransferred to PVDF membrane (GE Healthcare Italia, Milan, Italy) and immunoblotted with the following primary antibodies: anti-phospo-H2AX (sc-101696), anti-p53 (DO1) (sc-126), anti-actin ([MUT]) (sc-1616) and anti-PARP (sc-8007) antibody from Santa Cruz Biotecnology, Inc, Dallas, TX, USA.; phospho-specific AKT antibody S473 (#9018) and T308 (#9275), Akt antibody (#9272 and #2967), phospho-specific ERK1/2 antibody T202/Y204 (#4370), ERK1/2 antibody (#4669), phospho-specific p38 MAPK antibody T180/Y182 (#9211), and p38 antibody (#9212) were purchased from Cell Signaling Technologies, Danvers, MA, USA. Membranes were blotted and scanned with Bio-Rad ChemiDocTM Touch Imaging System (Bio-Rad, Hercules, CA, USA), using chemiluminescent detection reagents from Cyanagen, Bologna, Italy (Westar ηC and Supernova HRP substrates for Western blotting).

DU145 cells [11] = assay: Western blot of total cellular lysates, DU145; type: cell-based, Human; conditions: DU145, 48 h at GI50 dose
Experimental: as §8

PC3 cells [12] = assay: Cell migration (wound) assay, PC3; type: cell-based, Human; conditions: PC3, GI50 dose, 40 h
Experimental: (§7) 4 × 10^5 prostate cancer cells were plated in a 12-well plate. Approximately 24 h later, when the cells were 100% confluent, the monolayer was scratched using a 200 µL pipette tip. […] Three biological replicates were performed. Three random pictures were taken for each treated well per experiment and the areas of the wounds measured using ImageJ software. The percentage of wound recovery was then calculated using the formula: (final area-initial area)/initial area × 100%.

DU145 cells [13] = assay: Cell migration (wound) assay, DU145; type: cell-based, Human; conditions: DU145, GI50 dose, 16 h
Experimental: as §7

[14] = Antioxidant activity (DPPH assay); conditions: [DPPH] = 60 µM, methanol, 120 min; read-out: IC50, DPPH radical scavenging
Experimental: The antioxidant activity of the compounds was evaluated in terms of hydrogen donating or radical scavenging ability, using the stable DPPH radical (1,1-diphenyl-2-picrylhydrazyl radical). A variable amount (15, 30, 45, 75, 105, and 150 µL) of a methanol solution (1.2 mM) of each compound was placed in a cuvette, and 3 mL of a 60 µM methanol solution of DPPH was added. Absorbance measurements were initiated immediately. The decrease in absorbance at 517 nm was monitored every minute up to 5′, then every 5′ up to 30′ and every 30′ until reaction reaches completion and absorbance stabilizes attaining a plateau after 120′. Methanol was used to zero the spectrophotometer. The absorbance of the DPPH radical without K3F compound, i.e., the control, was measured daily, and concentration was calculated applying Equation (2) (2) [DPPH^·]=A−1.006/10970
The percentage of inhibition (%In) of the DPPH radical by each sample was calculated according to the formula (3) %In=A0−At/A0×100 where A0 represents the absorbance of the control (DPPH radical) at time 0, while At refers to the absorbance of the mixture DPPH/antioxidant at time t (120 min). Values of absorbance were corrected taking into account volume dilution and all determinations were performed in triplicate.

CC(=O)O[C@@]12CO[C@@H]1C[C@H](O)[C@@]1(C)C(=O)[C@H](O)C3=C(C)[C@@H](OC(=O)[C@H](O)[C@@H](NC(=O)OC(C)(C)C)c4ccccc4)C[C@@](O)([C@@H](OC(=O)c4ccccc4)[C@H]21)C3(C)C [Docetaxel, reference compound]
IC50 (PC3 cells [1]; Homo sapiens, PC-3, PC3, MTT assay): 0.03 µM
IC50 (DU145 cells [2]; Homo sapiens, DU-145, DU145, MTT assay): 0.017 µM
effect on cell cycle distribution (in words) (PC3 cells [3]): high cytotoxic effect associated to a robust increase in SubG1 events
effect on cell cycle distribution (in words) (DU145 cells [4]): high cytotoxic effect associated to a robust increase in SubG1 events
DTX drug reduction index (DRI) (DU145 cells [5]): 2.9

COc1cc(/C=C/C(=O)C(CCCN2C(=O)c3ccccc3C2=O)C(=O)/C=C/c2ccc(OC(C)=O)c(OC)c2)ccc1OC(C)=O [K3F24]
pKa [6]: 8 to 8.5
prevailing species ([6]; pH 7): neutral one (HL)
GI50 (PC3 cells [1]; Homo sapiens, PC-3, 48 h): 16.7 µM
GI50 (DU145 cells [2]; Homo sapiens, DU-145): 13.2 µM
effect on cell cycle distribution (in words) (PC3 cells [3]): doubled the percentage of G2/M cells
effect on cell cycle distribution (in words) (DU145 cells [4]): ability to arrest cell cycle progression

2-((4Z,6E)-4-cinnamoyl-5-hydroxy-7-phenylhepta-4,6-dien-1-yl)isoindoline-1,3-dione [K3F33]
prevailing species ([6]; pH 7): neutral one (HL)
residual percentage [7]: ~60%
GI50 (PC3 cells [1]): 21.8 µM
GI50 (DU145 cells [2]): 23.3 µM
effect on cell cycle distribution (in words) (PC3 cells [3]): doubled the percentage of G2/M cells; also recorded: significantly increases SubG1 events
effect on cell cycle distribution (in words) (DU145 cells [4]): ability to arrest cell cycle progression

COc1cc(C=CC(=O)CC(=O)C=Cc2ccc(O)c(OC)c2)ccc1O [Curcumin, 1,7-bis [4-hydroxy-3-methoxyphenyl]-1,6-heptadiene-3,5-Dione, reference compound]
GI50 (PC3 cells [1]; Homo sapiens, PC-3, 48 h): 21 µM
GI50 (DU145 cells [2]; Homo sapiens, DU-145): 17.3 µM
PC3 % CELLS G2/M (PC3 cells [3]; 48 h at GI50 concentration): 37%
effect on cell cycle distribution (in words) (PC3 cells [3]): significantly increases SubG1 events
DU145 % CELLS SubG1 (DU145 cells [4]; 48 h at GI50 concentration): 5%
effect on cell cycle distribution (in words) (DU145 cells [4]): mainly acts as a cytotoxic drug
Noxa transcription (PC3 cells [8]): induced
transcription of CDK inhibitors p21 and p27 (PC3 cells [8]): increased
Noxa transcription (DU145 cells [9]): induced
ERK1/2 phosphorylation (PC3 cells [10]): increased
phosphorylation of AKT in Ser473 and Thr308 (PC3 cells [10]): inhibited
γH2AX expression (marker of DNA damage) (PC3 cells [10]): increased
ERK1/2 phosphorylation (DU145 cells [11]): increased
phospho-p38 expression (DU145 cells [11]): no changes were observed
γH2AX expression (marker of DNA damage) (DU145 cells [11]): increased γH2AX in PC3 only
cell migration (wound recovery) (PC3 cells [12]): inhibitory effects on the migratory capacity
cell migration (wound recovery) (DU145 cells [13]): inhibitory effects on the migratory capacity

O=C(/C=C/c1ccc(O)cc1)C(CCCN1C(=O)c2ccccc2C1=O)C(=O)/C=C/c1ccc(O)cc1 [K3F31]
mono-dissociated negatively charged form (H2L−) ([6]; pH 7): 65%
mono-dissociated negatively charged form (H2L−) ([6]; pH 7.4): 86%
IC50 [14]: 120 µM

COc1cccc(/C=C/C(=O)C(CCCN2C(=O)c3ccccc3C2=O)C(=O)/C=C/c2cccc(OC)c2)c1 [K3F23]
pKa [6]: 8 to 8.5
prevailing species ([6]; pH 7): neutral one (HL)
GI50 (PC3 cells [1]; Homo sapiens, PC-3, 48 h): 12.4 µM
GI50 (DU145 cells [2]; Homo sapiens, DU-145): 12.5 µM
effect on cell cycle distribution (in words) (PC3 cells [3]): doubled the percentage of G2/M cells
effect on cell cycle distribution (in words) (DU145 cells [4]): both arrested the G2/M progression and induced cell death
